Assay results: patent US20060069132A1, “Azolecarboxamide herbicides” (priority 2004, published 2006)

Experiments:
[1] = test system: smallflower umbrella sedge; assay: Test C flooded paddy test; type: in vivo, Cyperus difformis
woolly cupgrass = assay: Test C pre-/postemergence herbicide test; type: in vivo, Eriochloa villosa; conditions: preemergence
Outline: (§1)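 Seeds were planted and sprayed preemergence with test chemicals in a non-phytotoxic solvent mixture containing surfactant; postemergence treatments went onto plants 2 to 18 cm tall (1- to 4-leaf stage). After 12 to 14 days in a greenhouse, injury was rated visually against untreated controls on a 0–100 scale.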

bermudagrass = assay: Test C pre-/postemergence herbicide test; type: in vivo, Cynodon dactylon; conditions: for Plant response rating, Bermudagrass: preemergence
Outline: as §1

[2] = test system: common (oilseed) sunflower; assay: Test C pre-/postemergence herbicide test; type: in vivo, Helianthus annuus; conditions: preemergence
Outline: as §1

rice [3] = assay: Test B pre-/postemergence herbicide test; type: in vivo, Oryza sativa; conditions: 0 = no effect, 100 = complete control, preemergence
Outline: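 Species tested were Echinochloa crus-galli, Ipomoea coccinea, Xanthium strumarium and Oryza sativa, treated both before emergence and at the 1- to 4-leaf stage; rice and barnyardgrass were also tested under flooding at 2 leaves. Greenhouse incubation lasted 13–15 days before visual 0–100 scoring.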

soybean = assay: Test C pre-/postemergence herbicide test; type: in vivo, Glycine max; conditions: preemergence
Outline: as §1

velvetleaf = assay: Test C pre-/postemergence herbicide test; type: in vivo, Abutilon theophrasti; conditions: preemergence
Outline: as §1

large crabgrass = assay: Test A pre-/postemergence herbicide test; type: in vivo, Digitaria sanguinalis
Outline: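 Seeds sown in sandy loam received a preemergence directed soil spray of compound in non-phytotoxic solvent with surfactant; postemergence plants (2–10 cm, one- to two-leaf stage) were sprayed to runoff at the same time. After ~10 days in greenhouse, injury was rated visually versus untreated controls (0 = no effect, 100 = complete control).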

rice [4] = assay: Test C flooded paddy test; type: in vivo, Oryza sativa
Outline: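 Plants were grown to the 1- to 4-leaf stage (2–18 cm) and then treated postemergence, or grown to the 2-leaf stage for the flooded paddy test. They were held in a greenhouse for 12 to 14 days and then scored by eye against controls, where 0 is no effect and 100 is complete control.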

corn = assay: Test C pre-/postemergence herbicide test; type: in vivo, Zea mays; conditions: 250 g ai/ha; scale 0-100; preemergence
Outline: as §1

[5] = 125 g ai/ha, scale 0 to 100 (0 no effect, 100 complete control)
[6] = 250 g ai/ha, scale of 0 to 100, 0 is no effect, 100 is complete control
[7] = 500 g ai/ha, visual rating after 12 to 14 days, scale 0 to 100 (0 no effect, 100 complete control)
[8] = 125 g ai/ha, scale 0 (no effect) to 100 (complete control), visual, 12 to 14 days
[9] = 500 g ai/ha, scale 0 to 100 (0 no effect, 100 complete control), visual, 12 to 14 days

## CCn1nc(C(C)(C)C)cc1C(=O)Nc1cncc(C(=O)N(C)C)n1 [Compound 287]
[1]; 62 g ai/ha, scale 0 to 100
  Sedge, Umbrella plant response rating: 0
[1]; [5]
  Sedge, Umbrella plant response rating: 35
[1]; [6]
  Sedge, Umbrella plant response rating: 70
[1]; [7]
  Plant response rating, Sedge, Umbrella: 75
Woolly cupgrass; 62 g ai/ha, scale 0 to 100
  Plant response rating, Cupgrass, Woolly: 0
Woolly cupgrass; [8]
  Plant response rating, Cupgrass, Woolly: 0
Woolly cupgrass; 250 g ai/ha, scale 0-100
  Plant response rating, Cupgrass, Woolly: 10
Woolly cupgrass; [9]
  Plant response rating, Cupgrass, Woolly: 35
bermudagrass; 62 g ai/ha, scale 0 to 100, 0 no effect, 100 complete control
  Plant response rating, Bermudagrass: 85
bermudagrass; [8]
  Plant response rating, Bermudagrass: 95
bermudagrass; 250 g ai/ha, scale 0-100
  Plant response rating, Bermudagrass: 95
bermudagrass; Preemergence, 500 g ai/ha, scale 0 to 100, 0 no effect, 100 complete control
  Bermudagrass plant response rating: 95
[2]; 62 g ai/ha, scale 0 to 100
  Plant response rating, Sunflower: 90
[2]; 250 g ai/ha, scale 0-100
  Plant response rating, Sunflower: 100
[2]; [9]
  Plant response rating, Sunflower: 100
Rice [3]; 125 g ai/ha
  Rice plant response rating (0 to 100 scale): 80
Rice [3]; 500 g ai/ha, visual rating
  Plant response rating, Rice: 90
soybean; 62 g ai/ha, scale 0 to 100
  Plant response rating, Soybean: 0
soybean; 250 g ai/ha, scale 0-100
  Plant response rating, Soybean: 85
soybean; [9]
  Plant response rating, Soybean: 95
velvetleaf; 62 g ai/ha, scale 0 to 100
  Plant response rating, Velvetleaf: 40
velvetleaf; 250 g ai/ha, scale 0-100
  Plant response rating, Velvetleaf: 100
velvetleaf; [9]
  Plant response rating, Velvetleaf: 100
Large crabgrass; Postemergence, 500 g ai/ha, 0 to 100 scale, 0 no effect, 100 complete control
  Crabgrass, Large plant response rating: 10
Large crabgrass; Postemergence, 2000 g ai/ha, 0 to 100 scale, 0 no effect, 100 complete control
  Plant response rating, Crabgrass, Large: 60
Large crabgrass; Preemergence, 2000 g ai/ha, visual rating, 0 to 100 scale (0 no effect, 100 complete control)
  Crabgrass, Large plant response rating: 100
Large crabgrass; preemergence, 500 g ai/ha, visual injury, 0 to 100 scale (0 no effect, 100 complete control)
  Crabgrass, Large plant response rating: 75
Rice [4]; 62 g ai/ha, scale 0 to 100
  Rice plant response rating: 0
Rice [4]; [5]
  Rice plant response rating: 20
Rice [4]; [6]
  Rice plant response rating: 25
Rice [4]; [7]
  Plant response rating, Rice: 55
corn
  Plant response rating, Corn: 50
